MIC data for four molecules are collected here from ChEMBL document CHEMBL1129105, “Synthesis and biological evaluation of N-(1-aziridino)-6-fluoro-quinolone-3-carboxylic acids” (1996).

Broadly, the MIC is the smallest concentration in the dilution series that meets the test's criterion for growth inhibition.

≈ marks a conversion by molar mass, not a printed value.

One test concerns Enterococcus faecalis. The test is described as follows: In vitro antibacterial activity of compound was measured against gram positive Streptococcus faecalis. In kind it is functional.
Test [1] concerns Mycobacterium tuberculosis. The test is described as follows: In vitro antibacterial activity of compound was measured against gram positive Mycobacterium tuberculosis H37Rv (human). The format is functional.
The subject of the next test is Klebsiella pneumoniae. The test is described as follows: In vitro antibacterial activity of compound was measured against gram negative Klebsiella pneumoniae ATCC 10031. The format is functional.
In another test the test system is Shigella sonnei. The test is described as follows: In vitro antibacterial activity of compound was measured against gram negative Shigella sonnei. In kind it is functional.
Test [2] concerns Streptococcus pyogenes. The test is described as follows: In vitro antibacterial activity of compound was measured against gram positive Streptococcus pyogenes A 118. In kind it is functional.
Test [3] concerns Mycobacterium tuberculosis. The test is described as follows: In vitro antibacterial activity of compound was measured against gram positive Mycobacterium tuberculosis Ravenel(bovin). The format is functional.
The test system of test [4] is Bordetella bronchiseptica. The test is described as follows: In vitro antibacterial activity of compound was measured against gram negative Bordetella bronchiseptica ATCC 4617. The format is functional.
Test [5] has as its system Streptococcus pyogenes. The test is described as follows: In vitro antibacterial activity of compound was measured against gram positive Streptococcus pyogenes A 115 ROBB. In kind it is functional.
A further test has as its system Bacillus subtilis. The test is described as follows: In vitro antibacterial activity of compound was measured against gram positive Bacillus subtilis ATCC 6633. The format is functional.
Test [6] has as its system Escherichia coli. The test is described as follows: In vitro antibacterial activity of compound was measured against gram negative Escherichia coli 6R. In kind it is functional.
Another test concerns Salmonella typhimurium. The test is described as follows: In vitro antibacterial activity of compound was measured against gram negative Salmonella Typhimurium 51. In kind it is functional, Salmonella enterica subsp. enterica serovar Typhimurium. The conditions noted are these: Salmonella enterica.
In test [7] the test system is Escherichia coli. The test is described as follows: In vitro antibacterial activity of compound was measured against gram negative Escherichia coli K12. In kind it is functional.
The next test has as its system Proteus inconstans. The test is described as follows: In vitro antibacterial activity of compound was measured against gram negative Proteus inconstans NCTC 8055. To be noted: Providencia alcalifaciens. The format is functional.
The subject of the next test is Proteus vulgaris. The test is described as follows: In vitro antibacterial activity of compound was measured against gram negative Proteus vulgaris XL. The format is functional.
A further test relates to Serratia marcescens. The test is described as follows: In vitro antibacterial activity of compound was measured against gram negative Serratia marcescens. The format is functional.
In test [8] the test system is Staphylococcus aureus. The test is described as follows: In vitro antibacterial activity of compound was measured against gram positive Staphylococcus aureus SMITH. In kind it is functional.
Test [9] relates to Staphylococcus aureus. The test is described as follows: In vitro antibacterial activity of compound was measured against gram positive Staphylococcus aureus 1110 pen.rez. In kind it is functional.
A further test has as its system Alcaligenes faecalis. The test is described as follows: In vitro antibacterial activity of compound was measured against gram negative Alcaligenes faecalis 140001. The format is functional.
The next test relates to Bacteroides fragilis. The test is described as follows: In vitro antibacterial activity of compound was measured against gram negative Bacteroides fragilis ATCC 25285. In kind it is functional.
For the next test, the system named is Streptococcus pneumoniae. The test is described as follows: In vitro antibacterial activity of compound was measured against gram positive Streptococcus pneumoniae. In kind it is functional.
The subject of test [10] is Acinetobacter calcoaceticus subsp. anitratus. The test is described as follows: In vitro antibacterial activity of compound was measured against gram negative Acinetobacter anitratus 150001. The format is functional.
The subject of a further test is Pseudomonas aeruginosa. The test is described as follows: In vitro antibacterial activity of compound was measured against gram negative Pseudomonas pyocyanea NCTC 10490. In kind it is functional, pseudomona pyocyanea.
The test system of another test is Clostridium perfringens. The test is described as follows: In vitro antibacterial activity of compound was measured against gram positive Clostridium perfringens 70500. In kind it is functional.

For the molecule `CN1CCN(c2cc3c(cc2F)c(=O)c(C(=O)O)cn3N2C3CCCCC32)CC1` (configuration not stated), the MIC is over 100 µg/mL in the test with Enterococcus faecalis; 6.2 µg/mL (≈ 15.5 µM) in test [1]; 0.8 µg/mL (≈ 2 µM) in the test on Klebsiella pneumoniae; 12.5 µg/mL (≈ 31.2 µM) against Shigella sonnei; 100 µg/mL (≈ 250 µM) in the test with Streptococcus pyogenes [2]; 3.1 µg/mL (≈ 7.74 µM) in [3]. Moreover, the MIC in test [4] worked out at 25 µg/mL (≈ 62.4 µM); in the test with Streptococcus pyogenes [5], 100 µg/mL (≈ 250 µM); against Bacillus subtilis, 3.1 µg/mL (≈ 7.74 µM); with Escherichia coli [6], 100 µg/mL (≈ 250 µM); against Salmonella typhimurium, 25 µg/mL (≈ 62.4 µM); in the test with Escherichia coli [7] it was 50 µg/mL (≈ 125 µM). Moreover, the MIC was found to be 100 µg/mL (≈ 250 µM) with Proteus inconstans; 50 µg/mL (≈ 125 µM) with Proteus vulgaris; 50 µg/mL (≈ 125 µM) against Serratia marcescens; 50 µg/mL (≈ 125 µM) against Staphylococcus aureus [8]; 50 µg/mL (≈ 125 µM) in the test with Staphylococcus aureus [9]; 100 µg/mL (≈ 250 µM) against Alcaligenes faecalis. The MIC was 25 µg/mL (≈ 62.4 µM) against Bacteroides fragilis; 100 µg/mL (≈ 250 µM) with Streptococcus pneumoniae; 12.5 µg/mL (≈ 31.2 µM) in [10]; 100 µg/mL (≈ 250 µM) against Pseudomonas aeruginosa; 100 µg/mL (≈ 250 µM) in the test with Clostridium perfringens.

As to `CN1CCN(c2cc3c(cc2F)c(=O)c(C(=O)O)cn3N2CC2c2ccc(F)cc2)CC1` (configuration not stated), the MIC worked out at 25 µg/mL (≈ 56.8 µM) in the test on Enterococcus faecalis; 12.5 µg/mL (≈ 28.4 µM) in test [1]; 6.2 µg/mL (≈ 14.1 µM) in the test on Klebsiella pneumoniae; 25 µg/mL (≈ 56.8 µM) in the test with Shigella sonnei; 25 µg/mL (≈ 56.8 µM) against Streptococcus pyogenes [2]; 6.2 µg/mL (≈ 14.1 µM) in test [3]. For the same molecule, the minimal inhibitory concentration (MIC) was determined as 12.5 µg/mL (≈ 28.4 µM) in test [4]; 10 µg/mL (≈ 22.7 µM) in the test with Streptococcus pyogenes [5]; 10 µg/mL (≈ 22.7 µM) against Bacillus subtilis; 100 µg/mL (≈ 227 µM) in the test on Escherichia coli [6]; 50 µg/mL (≈ 114 µM) in the test with Salmonella typhimurium; 50 µg/mL (≈ 114 µM) against Escherichia coli [7]. In addition, the minimal inhibitory concentration (MIC) was 100 µg/mL (≈ 227 µM) in the test with Proteus inconstans; 100 µg/mL (≈ 227 µM) in the test with Proteus vulgaris; 100 µg/mL (≈ 227 µM) in the test with Serratia marcescens; 25 µg/mL (≈ 56.8 µM) against Staphylococcus aureus [8]; 25 µg/mL (≈ 56.8 µM) in the test on Staphylococcus aureus [9]; 100 µg/mL (≈ 227 µM) in the test on Alcaligenes faecalis. Moreover, the MIC against Bacteroides fragilis is 25 µg/mL (≈ 56.8 µM); with Streptococcus pneumoniae it was 5 µg/mL (≈ 11.4 µM); in test [10], 50 µg/mL (≈ 114 µM); in the test with Pseudomonas aeruginosa, 100 µg/mL (≈ 227 µM); with Clostridium perfringens it was 6.2 µg/mL (≈ 14.1 µM).

Regarding `CN1CCN(c2cc3c(cc2F)c(=O)c(C(=O)O)cn3N2CC2c2ccccn2)CC1` (configuration not stated), the MIC with Enterococcus faecalis stood at 100 µg/mL (≈ 236 µM); in test [1], 50 µg/mL (≈ 118 µM); with Klebsiella pneumoniae, 50 µg/mL (≈ 118 µM); with Shigella sonnei, 12.5 µg/mL (≈ 29.5 µM); against Streptococcus pyogenes [2], 50 µg/mL (≈ 118 µM); in test [3] it was 25 µg/mL (≈ 59 µM). In addition, the MIC amounted to 100 µg/mL (≈ 236 µM) in test [4]; 50 µg/mL (≈ 118 µM) with Streptococcus pyogenes [5]; 50 µg/mL (≈ 118 µM) against Bacillus subtilis; 100 µg/mL (≈ 236 µM) in the test on Escherichia coli [6]; 100 µg/mL (≈ 236 µM) with Salmonella typhimurium; 100 µg/mL (≈ 236 µM) against Escherichia coli [7]. Moreover, the MIC against Proteus inconstans is over 100 µg/mL; against Proteus vulgaris, over 100 µg/mL; with Serratia marcescens, 100 µg/mL (≈ 236 µM); against Staphylococcus aureus [8], 50 µg/mL (≈ 118 µM); with Staphylococcus aureus [9], 100 µg/mL (≈ 236 µM); against Alcaligenes faecalis, over 100 µg/mL. Further, the minimal inhibitory concentration (MIC) with Bacteroides fragilis was 50 µg/mL (≈ 118 µM); in the test on Streptococcus pneumoniae, 25 µg/mL (≈ 59 µM); in test [10] it was over 100 µg/mL; against Pseudomonas aeruginosa it was 100 µg/mL (≈ 236 µM); with Clostridium perfringens it was 50 µg/mL (≈ 118 µM).

`CN1CCN(c2c(F)cc3c(=O)c(C(=O)O)cn(N4CC4c4cccc(C(F)(F)F)c4)c3c2F)CC1` (configuration not stated): the MIC with Enterococcus faecalis was 50 µg/mL (≈ 98.3 µM); in test [1] it was 100 µg/mL (≈ 197 µM); in the test with Klebsiella pneumoniae, 12.5 µg/mL (≈ 24.6 µM); against Shigella sonnei, 12.5 µg/mL (≈ 24.6 µM); against Streptococcus pyogenes [2], 100 µg/mL (≈ 197 µM); in [3] it was 50 µg/mL (≈ 98.3 µM). The MIC in [4] turned out to be 100 µg/mL (≈ 197 µM); against Streptococcus pyogenes [5] it was 100 µg/mL (≈ 197 µM); against Bacillus subtilis, 50 µg/mL (≈ 98.3 µM); against Escherichia coli [6], 100 µg/mL (≈ 197 µM); in the test with Salmonella typhimurium, 50 µg/mL (≈ 98.3 µM); in the test with Escherichia coli [7], 50 µg/mL (≈ 98.3 µM). In addition, the MIC against Proteus inconstans is 100 µg/mL (≈ 197 µM); against Proteus vulgaris, 100 µg/mL (≈ 197 µM); with Serratia marcescens, 100 µg/mL (≈ 197 µM); against Staphylococcus aureus [8] it was 25 µg/mL (≈ 49.2 µM); against Staphylococcus aureus [9], 50 µg/mL (≈ 98.3 µM); in the test on Alcaligenes faecalis it was 100 µg/mL (≈ 197 µM). For the same molecule, the MIC is 50 µg/mL (≈ 98.3 µM) in the test on Bacteroides fragilis; 25 µg/mL (≈ 49.2 µM) in the test with Streptococcus pneumoniae; 100 µg/mL (≈ 197 µM) in test [10]; 100 µg/mL (≈ 197 µM) against Pseudomonas aeruginosa; 100 µg/mL (≈ 197 µM) against Clostridium perfringens.
